The experiment deals with T1, Plasmepsin V (PmV) (Plasmodium falciparum, UniProt Q8I6Z5).
T1 construct: PmV was purified directly from parasites; made in house
The experiment can be described thus: PmV inhibition, fluorimetric PExEl cleavage assay. It is filed as biochemical. As for the experimental part: Saponin was added to culture to a final 0.05%; parasites were recovered via centrifugation at 4°C after 5 min of incubation on ice; parasite pellets were then washed twice in cold PBS and either immediately lysed or stored at -80°C until lysis. Parasites were lysed via three pulses of ultra-sonication of 10 sec duration, in PBS containing 0.5% Triton-X100 (TX-100). […] Quick washes of the resin were performed either in batches, or over columns, to remove unbound cellular material (four with ice-cold 0.5% TX-100 in PBS and a final one with cold PBS). Resin-bound PmV was stored in PBS at 4°C and used within 2–3 weeks, larger batches had Glycerol added to them, up to 10%, and were stored at -20°C for up to 5 months. […] Quality and purity of PmV batches were routinely confirmed by protein electrophoresis. Quantification of PmV was performed via densitometry analysis of stained protein SDS-PAGE gels relative to BSA standard curves.
PExEl cleavage activity was monitored by fluorimetric measurement of PExEl cleavage, as previously reported. […] PmV activity was performed at 37°C in 50 mM Tris-Maleate, pH 6.5, 50 mM NaCl, 0.05% TX-100, 2 mM DTT. Assays were routinely conducted in triplicate. Bead-bound enzyme was added to the reaction using ‘end-cut’ micropipette tips in order to facilitate sampling the suspension.
Inhibitory activities were measured in the presence of a substrate concentration of 3 μM by serial dilution of each compound in triplicates. […] Titration curves of the inhibitors were routinely composed of eleven points from 10 μM to 0.1 pM. PmV concentration was kept in the order of low picomolar (≤10 pM). […] Analysis of the half inhibitory activity (IC50) was performed by sigmoidal interpolation of the starting velocities of the hydrolytic reactions for each condition. Starting velocities were calculated on the initial linear range of the product progression curves. […] Data are presented with error bars indicating the standard deviation of three independent activity curves.

Where [1] appears, read: 3 μM HRPII-PExEl substrate, averages of not less than three inhibition curves, read-out: IC50.
Setting [2] is: 3 μM substrate, tested up to 10 μM, read-out: IC50.
[3] abbreviates: Activity, read-out: pIC50 (converted).

Like-named read-outs stand apart in the source and are kept apart here. Bounds are passed on as bounds.

T1 sequence (Q8I6Z5 whole entry): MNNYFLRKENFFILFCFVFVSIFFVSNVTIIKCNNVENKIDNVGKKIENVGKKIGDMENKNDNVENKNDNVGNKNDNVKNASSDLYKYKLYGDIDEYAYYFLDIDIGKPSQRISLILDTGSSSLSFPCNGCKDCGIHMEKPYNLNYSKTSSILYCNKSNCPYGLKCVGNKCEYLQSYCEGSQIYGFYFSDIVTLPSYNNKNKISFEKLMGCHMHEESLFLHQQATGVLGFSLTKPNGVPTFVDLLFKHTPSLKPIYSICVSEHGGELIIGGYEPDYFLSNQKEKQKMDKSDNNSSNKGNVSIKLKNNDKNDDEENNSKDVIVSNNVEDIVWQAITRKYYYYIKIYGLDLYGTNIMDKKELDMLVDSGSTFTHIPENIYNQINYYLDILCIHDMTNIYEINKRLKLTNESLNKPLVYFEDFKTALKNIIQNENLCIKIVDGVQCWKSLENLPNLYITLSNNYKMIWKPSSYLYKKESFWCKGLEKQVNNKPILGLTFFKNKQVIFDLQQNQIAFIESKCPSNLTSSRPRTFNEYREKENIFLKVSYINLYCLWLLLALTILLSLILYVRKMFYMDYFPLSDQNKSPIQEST

As for `CC(C)C[C@H](NC(=O)[C@H](CO)NC(=O)[C@@H](N)CCCNC(=N)N)C(O)CN[C@@H](Cc1ccc(O)cc1)C(=O)N[C@@H](CCC(=O)O)C(=O)N[C@@H](C)C(N)=O` (mixture of isomers) [Compound 12], the “IC50 increase compared to Compound 7a” value was 15 fold and the inhibition constant (Ki) (in general, a dissociation constant, usually derived from enzyme kinetics or from competition with a known ligand) worked out at 12.4 nM. The IC50 under setting [1] came out at 23.1 nM.

For `CC(C)C[C@H](NC(=O)[C@@H](N)CCCCN)C(=O)N[C@@H](CC(C)C)C(O)CN[C@@H](C)C(=O)N[C@@H](CCC(N)=O)C(=O)N[C@@H](C)C(N)=O` (mixture of isomers) [Compound 18], under setting [1], the IC50 is greater than 10000 nM.

Consider `CC(C)C[C@H](NC(=O)[C@@H](N)CCCNC(=N)N)C(=O)N[C@@H](CC(C)C)C(O)CN[C@@H](C)C(=O)N[C@@H](CCC(=O)O)C(N)=O` (mixture of isomers) [Compound 22], for which the Ki worked out at 0.22 nM. For the same compound, under setting [1], the IC50 stood at 0.42 nM.

In the case of `CC(C)C[C@H](NC(=O)[C@@H](N)CCCNC(=N)N)C(=O)N[C@@H](CC(C)C)C(O)CN[C@@H](C)C(=O)N[C@@H](CCC(N)=O)C(N)=O` (mixture of isomers) [Compound 23], the “IC50 increase compared to Compound 8a” value was 2.5 fold and the inhibition constant (Ki) was found to be 6.94 nM. In addition, the IC50 under setting [1] came out at 12.9 nM.

`CC(C)C[C@H](NC(=O)[C@@H](N)CCCNC(=N)N)C(=O)N[C@@H](CC(C)C)C(O)CN[C@@H](C)C(=O)NCC(=O)O` (mixture of isomers) [Compound 25] returned an inhibitory constant (Ki) of 8.03 nM. The IC50 under setting [1] was 15 nM.

Take `CC(C)C[C@H](NC(=O)[C@@H](N)Cc1c[nH]c2ccccc12)C(=O)N[C@@H](CC(C)C)C(O)CN[C@@H](C)C(=O)N[C@@H](CCC(=O)O)C(N)=O` (mixture of isomers) [Compound 31]: the IC50 under setting [2] is greater than 10000 nM.

Regarding `CC(C)C[C@H](NC(=O)[C@@H](N)Cc1c[nH]c2ccccc12)C(=O)N[C@@H](CC(C)C)C(O)CN[C@@H](C)C(=O)N[C@@H](CCC(=O)O)C(N)=O` (mixture of isomers) [LG51_Mix], the IC50 runs as follows: (Activity, read-out: IC50) 39500 nM; under setting [3], 39800 nM.

With `CC(C)C[C@H](NC(=O)[C@@H](N)CCCNC(=N)N)C(=O)N[C@@H](CC(C)C)[C@@H](O)CN[C@@H](Cc1ccc(O)cc1)C(=O)N[C@@H](CCC(=O)O)C(N)=O` [Compound 2a], the affinity corresponds to a Ki of 0.98 nM. The IC50 under setting [1] amounted to 1.83 nM.

The compound `CC(C)C[C@H](NC(=O)[C@@H](N)CCCNC(=N)N)C(=O)N[C@@H](CC(C)C)[C@H](O)CN[C@@H](Cc1ccc(O)cc1)C(=O)N[C@@H](CCC(=O)O)C(N)=O` [Compound 2b] gave a Ki of 17.3 nM. The IC50 under setting [1] is 32.2 nM.

In the case of `CC(C)C[C@H](NC(=O)[C@@H](N)Cc1ccc(O)cc1)C(=O)N[C@@H](CC(C)C)[C@@H](O)CN[C@@H](C)C(=O)N[C@@H](CCC(=O)O)C(=O)N[C@@H](C)C(N)=O` [Compound 3a], the Ki came out at 2510 nM. The IC50 under setting [1] is 4680 nM.

`CC(C)C[C@H](NC(=O)[C@@H](N)Cc1ccc(O)cc1)C(=O)N[C@@H](CC(C)C)[C@H](O)CN[C@@H](C)C(=O)N[C@@H](CCC(=O)O)C(=O)N[C@@H](C)C(N)=O` [Compound 3b] had a Ki of 6570 nM. Under setting [1], the IC50 was roughly 12200 nM.

Take `CC(C)C[C@H](NC(=O)[C@@H](N)CCCNC(=N)N)C(=O)N[C@@H](CC(C)C)[C@@H](O)CN[C@@H](Cc1ccc(O)cc1)C(=O)N[C@@H](CCC(=O)O)C(=O)N[C@@H](C)C(N)=O` [Compound 7a]: the “IC50 increase compared to Compound 1” value is 4–7 fold and affinity was put at a Ki of 0.74 nM. Under setting [1], the IC50 came to 1.38 nM.

Consider `CC(C)C[C@H](NC(=O)[C@@H](N)CCCNC(=N)N)C(=O)N[C@@H](CC(C)C)[C@@H](O)CN[C@@H](Cc1ccc(O)cc1)C(=O)N[C@@H](CCC(N)=O)C(=O)N[C@@H](C)C(N)=O` [Compound 9a], for which the “IC50 increase compared to Compound 7a” value was ~ 9 fold; the “IC50 increase compared to Compound 8a” value is recorded as 4–7 fold; the affinity, expressed as Ki, was 6.8 nM. Moreover, the IC50 under setting [1] worked out at 12.7 nM.

On to `CC(C)C[C@H](NC(=O)[C@H](C)NC(=O)[C@@H](N)CCCNC(=N)N)[C@@H](O)CN[C@@H](Cc1ccc(O)cc1)C(=O)N[C@@H](CCC(=O)O)C(=O)N[C@@H](C)C(N)=O` [Compound 11a], for which the “IC50 increase compared to Compound 7a” value was determined as 5 fold and the Ki amounted to 3.3 nM. Besides, the IC50 under setting [1] came to 6.14 nM.

For `CC(C)C[C@H](NC(=O)[C@@H](N)CCCCN)C(=O)N[C@@H](CC(C)C)[C@@H](O)CN[C@@H](C)C(=O)N[C@@H](CCC(=O)O)C(=O)N[C@@H](C)C(N)=O` [Compound 13a], the Ki was determined as 412 nM. For the same compound, the IC50 under setting [1] is 767 nM. For the same compound, the IC50 under setting [2] is 770 nM.

Consider `CC(C)C[C@H](NC(=O)[C@@H](N)Cc1c[nH]cn1)C(=O)N[C@@H](CC(C)C)[C@@H](O)CN[C@@H](C)C(=O)N[C@@H](CCC(=O)O)C(=O)N[C@@H](C)C(N)=O` [Compound 14a], for which affinity was put at a Ki of 910 nM. Also, the IC50 under setting [1] worked out at 1690 nM.

In turn, `CC(C)C[C@H](NC(=O)[C@@H](N)Cc1c[nH]c2ccccc12)C(=O)N[C@@H](CC(C)C)[C@@H](O)CN[C@@H](C)C(=O)N[C@@H](CCC(N)=O)C(=O)N[C@@H](C)C(N)=O` [Compound 19a] showed a Ki of 2760 nM. The IC50 under setting [1] turned out to be 5130 nM.

The compound `CC(C)C[C@H](NC(=O)[C@@H](N)Cc1c[nH]cn1)C(=O)N[C@@H](CC(C)C)[C@@H](O)CN[C@@H](Cc1ccc(O)cc1)C(=O)N[C@@H](CCC(N)=O)C(=O)N[C@@H](C)C(N)=O` [Compound 20a] registered an inhibition constant Ki of 4410 nM. In addition, the IC50 under setting [1] came out at 8200 nM.

`CC(C)C[C@H](NC(=O)[C@@H](N)Cc1c[nH]c2ccccc12)C(=O)N[C@@H](CC(C)C)[C@@H](O)CN[C@@H](Cc1ccc(O)cc1)C(=O)N[C@@H](CCC(N)=O)C(=O)N[C@@H](C)C(N)=O` [Compound 21a]: the Ki was 673 nM. Besides, the IC50 under setting [1] worked out at 1250 nM.

Compound `CC(C)C[C@H](NC(=O)[C@@H](N)CCCNC(=N)N)C(=O)N[C@@H](CC(C)C)[C@@H](O)CN[C@@H](C)C(=O)N[C@@H](CCC(N)=O)C(=O)O` [Compound 24a] displayed a Ki of 8.9 nM. Besides, the IC50 under setting [1] amounted to 16.6 nM.

`CC(C)C[C@H](NC(=O)[C@@H](N)CCCNC(=N)N)C(=O)N[C@@H](CC(C)C)[C@@H](O)CN[C@@H](Cc1ccc(O)cc1)C(=O)N[C@@H](CCC(N)=O)C(=O)O` [Compound 26a] gave a Ki of 9.35 nM. Besides, under setting [1], the IC50 stood at 17.4 nM.

Take `CC(C)C[C@H](NC(=O)[C@@H](N)CCCNC(=N)N)C(=O)N[C@@H](CC(C)C)[C@@H](O)CN[C@@H](Cc1ccc(O)cc1)C(=O)NCC(=O)O` [Compound 27a]: the affinity, expressed as Ki, was 1.86 nM. For the same compound, the IC50 under setting [1] was 3.47 nM.

As to `CC(C)C[C@H](NC(=O)[C@@H](N)CCCCN)C(=O)N[C@@H](CC(C)C)[C@@H](O)CN[C@@H](Cc1ccc(O)cc1)C(=O)N[C@@H](CCC(=O)O)C(N)=O` [Compound 30a], the IC50 under setting [2] is greater than 10000 nM.

Take `CC(C)C[C@H](NC(=O)[C@@H](N)Cc1c[nH]c2ccccc12)C(=O)N[C@@H](CC(C)C)[C@@H](O)CN[C@@H](Cc1ccc(O)cc1)C(=O)N[C@@H](CCC(=O)O)C(N)=O` [Compound 32a]: under setting [2], the IC50 is greater than 10000 nM.

Regarding `CC(C)C[C@H](NC(=O)[C@@H](N)Cc1c[nH]c2ccccc12)C(=O)N[C@@H](CC(C)C)[C@@H](O)CN[C@@H](CO)C(=O)N[C@@H](CCC(=O)O)C(N)=O` [Compound 33a], the IC50 under setting [2] was greater than 10000 nM.

Turning to `CC(C)C[C@H](NC(=O)[C@@H](N)Cc1c[nH]c2ccccc12)C(=O)N[C@@H](CC(C)C)[C@@H](O)CN[C@H](C(=O)N[C@@H](CCC(=O)O)C(N)=O)[C@@H](C)O` [Compound 34a], under setting [2], the IC50 was greater than 10000 nM.

`CC(C)C[C@H](NC(=O)[C@@H](N)CCCNC(=N)N)C(=O)N[C@@H](CC(C)C)C(O)CN[C@@H](C)C(=O)N[C@@H](CCC(=O)O)C(=O)N[C@@H](C)C(N)=O` (stereo partly drawn) [LG20_Mix]: the IC50 was 0.37 nM (Activity, read-out: IC50) and 0.363 nM under setting [3].

Regarding `CC(C)C[C@H](NC(=O)[C@@H](N)CCCCN)C(=O)N[C@@H](CC(C)C)[C@@H](O)CN[C@@H](C)C(=O)N[C@@H](CCC(=O)O)C(N)=O` [LG61A_S], the IC50 (Activity, read-out: IC50) came to 8180 nM and the IC50 under setting [3] was 8130 nM.

Regarding `CC(C)C[C@H](NC(=O)[C@@H](N)CCCCN)C(=O)N[C@@H](CC(C)C)[C@@H](O)CN[C@@H](Cc1ccc(O)cc1)C(=O)N[C@@H](CCC(=O)O)C(N)=O` [LG62A_S], the IC50 (Activity, read-out: IC50) came out at 17500 nM and the IC50 under setting [3] is 17400 nM.

For the compound `CCCCCCCC(=O)N[C@@H](CCCNC(=N)N)C(=O)N[C@@H](CC(C)C)C(=O)N[C@@H](CC(C)C)[C@H](O)CN[C@@H](Cc1ccc(O)cc1)C(=O)N[C@@H](CCC(=O)O)C(=O)N[C@@H](C)C(N)=O` [LG63B_R], the IC50 (Activity, read-out: IC50) is 1.57 nM and the IC50 under setting [3] was 1.58 nM.

In the case of `CC(C)C[C@H](NC(=O)[C@@H](N)CCCNC(=N)N)C(=O)N[C@@H](CC(C)C)[C@H](O)CN[C@@H](Cc1ccc(O)cc1)C(=O)NCC(=O)O` [LG69B_R], the IC50 runs as follows: (Activity, read-out: IC50) 111 nM; under setting [3], 112 nM.

The values are drawn from PMC4643876, “Picomolar Inhibition of Plasmepsin V, an Essential Malaria Protease, Achieved Exploiting the Prime Region” (PLoS ONE, 2015).
